Read-outs that look alike come from different tables or passages of the source.
Legend:
[1] = system: MIA PaCa-2 cells (K-Ras G12C); experiment: Ras-SOS cellular growth inhibition assay (CellTiter-Glo, 3D); assay type: cell-based
Outline: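 MIA PaCa-2 cells grown in ultra-low-attachment plates (3D) in DMEM/Ham's F12 with 10% FCS and 2.5% horse serum, treated the day after seeding with a 9-point 3-fold compound series for about 5 days. Viability by CellTiter-Glo luminescence; IC50 from four-parameter fit.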

[2] = system: NCI-H1975 cells (EGFR T790M L858R); experiment: EGFR-SOS cellular inhibition assay (CellTiter-Glo, 3D); assay type: cell-based
[3] = In vitro plasma protein binding (PPB); assay type: in vitro ADME; conditions: percentage of free/unbound compound
SOS1 = SOS1 (Homo sapiens (Human), UniProt Q07889); experiment: Ras-SOS interaction assay (HTRF); assay type: biochemical
[4] = Homo sapiens, MIA PaCa-2, 120 h, MIA PaCa-2, 3D proliferation, about 5 days, read-out: Bio-Cell-Prolif-3D (MiaPaca2 IC50)
[5] = Homo sapiens, MIA PaCa-2, MIA PaCa-2, read-out: IC50 in inhibiting MIA PaCa-2 cell growth
[6] = Homo sapiens, 120 h, NCI-H1975, 3D proliferation, about 5 days, read-out: Bio-Cell-Prolif-3D (H1975 IC50)
[7] = Homo sapiens, NCI-H1975, EGFR T790M L858R, read-out: IC50 in inhibiting growth of NCI-H1975 cell line
[8] = K-RasG13D utilized, read-out: IC50 inhibition of SOS
[9] = K-RasG13D, read-out: IC50 value against SOS1

Row | Compound | IC50 [1, 4] | IC50 [1, 5] | IC50 [2, 6] | IC50 [2, 7] | DMPK-invitro-PPB (Mouse Unbound) [%] [3] | IC50 (SOS1; [8]) | IC50 (SOS1; [9]) | IC50 ([1]; MIA PaCa-2, 3D proliferation, about 5 days, read-out: Bio-Cell-Prolif-3D (MiaPaca2 IC50)) | IC50 ([2]; NCI-H1975, 3D proliferation, about 5 days, read-out: Bio-Cell-Prolif-3D (H1975 IC50)) | IC50 ([2]; NCI-H1975, EGFR T790M L858R, read-out: IC50 in inhibiting growth of NCI-H1975 cell line)
1 | COc1nc2nc(C)nc(N[C@H](C)c3cccc(C(F)F)c3F)c2cc1C1CCS(=O)(=O)CC1 [Compound 102, (R)-4-(4-((1-(3-(difluoromethyl)-2-fluorophenyl)ethyl)amino)-7-methoxy-2-methylpyrido[2,3-d]pyrimidin-6-yl)tetrahydro-2H-thiopyran 1,1-dioxide] | ≤ 1000 nM | < 500 nM | ≤ 1000 nM | < 500 nM | 2.56% | < 100 nM | < 50 nM | – | – | –
2 | COc1nc2nc(C)nc(N[C@H](C)c3cccc(C(F)F)c3F)c2cc1N1CCN(C)CC1 [Compound 103, (R)—N-(1-(3-(difluoromethyl)-2-fluorophenyl)ethyl)-7-methoxy-2-methyl-6-(4-methylpiperazin-1-yl)pyrido[2,3-d]pyrimidin-4-amine] | – | – | – | < 500 nM | 5.15% | < 100 nM | – | – | – | –
3 | COc1nc2nc(C)nc(N[C@H](C)c3cccc(C(F)F)c3F)c2cc1N1CCN(C(C)C)CC1 [Compound 109, (R)-N-(1-(3-(difluoromethyl)-2-fluorophenyl)ethyl)-6-(4-isopropylpiperazin-1-yl)-7-methoxy-2-methylpyrido[2,3-d] pyrimidin-4-amine] | ≤ 1000 nM | < 500 nM | ≤ 1000 nM | < 500 nM | 3.51% | < 100 nM | < 50 nM | – | – | –
4 | COc1nc2nc(C)nc(N[C@H](C)c3cccc(C(F)(F)F)c3C)c2cc1C1CCS(=O)(=O)CC1 [Compound 118, (R)-4-(7-methoxy-2-methyl-4-((1-(2-methyl-3-(trifluoromethyl)phenyl)ethyl)amino)pyrido[2,3-d]pyrimidin-6-yl)tetrahydro-2H-thiopyran 1,1-dioxide] | ≤ 1000 nM | < 500 nM | ≤ 1000 nM | < 500 nM | 0.31% | – | < 50 nM | – | – | –
5 | COc1nc2nc(C)nc(N[C@H](C)c3cccc(C(F)(F)F)c3F)c2cc1C1CCS(=O)(=O)CC1 [Compound 120, (R)-4-(4-((1-(2-fluoro-3-(trifluoromethyl)phenyl)ethyl)amino)-7-methoxy-2-methylpyrido[2,3-d]pyrimidin-6-yl)tetrahydro-2H-thiopyran 1,1-dioxide] | ≤ 1000 nM | < 500 nM | ≤ 1000 nM | < 500 nM | 0.73% | < 100 nM | < 50 nM | – | – | –
6 | COc1nc2nc(C)nc(N[C@H](C)c3cccc(C(F)(F)F)c3F)c2cc1C1CCN(C2CCOCC2)CC1 [Compound 344, (R)-N-(1-(2-fluoro-3-(trifluoromethyl)phenyl)ethyl)-7-methoxy-2-methyl-6-(1-(tetrahydro-2H-pyran-4-yl)piperidin-4-yl)pyrido[2,3-d]pyrimidin-4-amine] | – | – | – | – | 0.29% | < 100 nM | < 50 nM | – | – | –
7 | COc1nc2nc(C)nc(N[C@H](C)c3cccc(C(F)(F)F)c3C)c2cc1C1CCN(C2CCOCC2)CC1 [Compound 358, (R)-7-methoxy-2-methyl-N-(1-(2-methyl-3-(trifluoromethyl)phenyl)ethyl)-6-(1-(tetrahydro-2H-pyran-4-yl)piperidin-4-yl)pyrido [2,3-d]pyrimidin-4-amine] | – | – | – | – | 0.065% | < 100 nM | < 50 nM | – | – | –
8 | Cc1nc(N[C@H](C)c2cccc(C(F)F)c2F)c2cc(C3CCN(C(C)C)CC3)c(NC3COC3)nc2n1 [Compound 407, (R)-N4-(1-(3-(difluoromethyl)-2-fluorophenyl)ethyl)-6-(1-isopropylpiperidin-4-yl)-2-methyl-N7-(oxetan-3-yl)pyrido [2,3-d]pyrimidine-4,7-diamine] | 1000 to 10000 nM | – | 1000 to 10000 nM | – | – | < 100 nM | < 50 nM | – | – | –
9 | Cc1nc(N[C@H](C)c2cccc(C(F)F)c2F)c2cc(C3CCN(C(C)C)CC3)c(OC3CN(C)C3)nc2n1 [Compound 410, (R)-N-(1-(3-(difluoromethyl)-2-fluorophenyl)ethyl)-6-(1-isopropylpiperidin-4-yl)-2-methyl-7-((1-methylazetidin-3-yl)oxy)pyrido[2,3-d]pyrimidin-4-amine] | ≤ 1000 nM | < 500 nM | ≤ 1000 nM | < 500 nM | – | < 100 nM | < 50 nM | – | – | –
10 | Cc1nc(N[C@H](C)c2cccc(C(F)F)c2F)c2cc(N3CCN(C)CC3)c(OC3COC3)nc2n1 [Compound 411, (R)-N-(1-(3-(difluoromethyl)-2-fluorophenyl)ethyl)-2-methyl-6-(4-methylpiperazin-1-yl)-7-(oxetan-3-yloxy)pyrido[2,3-d]pyrimidin-4-amine] | ≤ 1000 nM | < 500 nM | ≤ 1000 nM | < 500 nM | – | < 100 nM | < 50 nM | – | – | –
11 | COc1nc2ncnc(N[C@H](C)c3cccc(C(F)F)c3F)c2cc1C1CCN(C)CC1 [Compound 412, (R)-N-(1-(3-(difluoromethyl)-2-fluorophenyl)ethyl)-7-methoxy-6-(1-methylpiperidin-4-yl)pyrido[2,3-d] pyrimidin-4-amine] | ≤ 1000 nM | < 500 nM | ≤ 1000 nM | < 500 nM | – | < 100 nM | < 50 nM | – | – | –
12 | CC(C)N1CCN(c2cc3c(N[C@H](C)c4cccc(C(F)F)c4F)ncnc3nc2OC2COC2)CC1 [Compound 413, (R)-N-(1-(3-(difluoromethyl)-2-fluorophenyl)ethyl)-6-(4-isopropylpiperazin-1-yl)-7-(oxetan-3-yloxy)pyrido[2,3-d] pyrimidin-4-amine] | ≤ 1000 nM | < 500 nM | ≤ 1000 nM | < 500 nM | – | < 100 nM | < 50 nM | – | – | –
13 | CC(C)N1CCN(c2cc3c(N[C@H](C)c4cccc(C(F)F)c4F)ncnc3nc2OC2CN(C)C2)CC1 [Compound 414, (R)-N-(1-(3-(difluoromethyl)-2-fluorophenyl)ethyl)-6-(4-isopropylpiperazin-1-yl)-7-((1-methylazetidin-3-yl)oxy)pyrido [2,3-d]pyrimidin-4-amine] | ≤ 1000 nM | – | ≤ 1000 nM | < 500 nM | – | < 100 nM | < 50 nM | – | – | –
14 | CCN1CCN(c2cc3c(N[C@H](C)c4cccc(C(F)F)c4F)nc(C)nc3nc2OC2COC2)CC1 [Compound 415, (R)-N-(1-(3-(difluoromethyl)-2-fluorophenyl)ethyl)-6-(4-ethylpiperazin-1-yl)-2-methyl-7-(oxetan-3-yloxy) pyrido[2,3-d]pyrimidin-4-amine] | ≤ 1000 nM | < 500 nM | ≤ 1000 nM | < 500 nM | – | < 100 nM | < 50 nM | – | – | –
15 | COc1nc2nc(C)nc(N[C@H](C)c3cccc(C(F)(F)C4CCN(C(C)C)CC4)c3)c2cc1N1CCN(C(C)C)CC1 [Compound 418, (R)—N-(1-(3-(difluoro(1-isopropylpiperidin-4-yl)methyl)phenyl)ethyl)-6-(4-isopropylpiperazin-1-yl)-7-methoxy-2-methylpyrido[2,3-d]pyrimidin-4-amine] | ≤ 1000 nM | < 500 nM | ≤ 1000 nM | < 500 nM | – | < 100 nM | < 50 nM | – | – | –
16 | COc1nc2ncnc(N[C@H](C)c3cccc(C(F)(F)C4CCN(C(C)C)CC4)c3)c2cc1C1CCN(C(C)C)CC1 [Compound 419, (R)—N-(1-(3-(difluoro(1-isopropylpiperidin-4-yl)methyl)phenyl)ethyl)-6-(1-isopropylpiperidin-4-yl)-7-methoxypyrido[2,3-d]pyrimidin-4-amine] | ≤ 1000 nM | < 500 nM | ≤ 1000 nM | < 500 nM | – | < 100 nM | < 50 nM | – | – | –
17 | COc1nc2nc(C)nc(N[C@H](C)c3cccc(C(F)(F)C4CCN(C(C)C)CC4)c3)c2cc1C1CCN(C(C)C)CC1 [Compound 420, (R)-N-(1-(3-(difluoro(1-isopropylpiperidin-4-yl)methyl)phenyl)ethyl)-6-(1-isopropylpiperidin-4-yl)-7-methoxy-2-methylpyrido[2,3-d] pyrimidin-4-amine] | ≤ 1000 nM | < 500 nM | ≤ 1000 nM | < 500 nM | – | < 100 nM | < 50 nM | – | – | –
18 | COc1nc2ncnc(N[C@H](C)c3cccc(C(F)(F)C4CCN(C(C)C)CC4)c3)c2cc1N1CCN(C(C)C)CC1 [Compound 421, (R)-N-(1-(3-(difluoro(1-isopropylpiperidin-4-yl)methyl)phenyl)ethyl)-6-(4-isopropylpiperazin-1-yl)-7-methoxypyrido[2,3-d] pyrimidin-4-amine] | ≤ 1000 nM | < 500 nM | ≤ 1000 nM | < 500 nM | – | < 100 nM | < 50 nM | – | – | –
19 | ((R)-1,4-dioxan-2-yl)(4-(4-(((R)-1-(2-fluoro-3-(trifluoromethyl)-phenyl)ethyl)amino)-7-methoxy-2-methylpyrido[2,3-d]pyrimidin-6-yl)piperazin-1-yl)methanone [Compound 303] | – | – | – | – | – | < 100 nM | < 50 nM | ≤ 1000 nM | ≤ 1000 nM | < 500 nM

Reference: US11648254B2 (Kumquat Biosciences Inc., priority 2021, dated 2023)
